This assay addresses T1, human CCR10 (Homo sapiens, UniProt P46092).
T1 construct: expressed in transfected cells; host or cells: KJMGER8 cells (Namalwa cell-derived line), beta-estradiol-induced; hCCR10G16 cells
T1 sequence (P46092 1-362): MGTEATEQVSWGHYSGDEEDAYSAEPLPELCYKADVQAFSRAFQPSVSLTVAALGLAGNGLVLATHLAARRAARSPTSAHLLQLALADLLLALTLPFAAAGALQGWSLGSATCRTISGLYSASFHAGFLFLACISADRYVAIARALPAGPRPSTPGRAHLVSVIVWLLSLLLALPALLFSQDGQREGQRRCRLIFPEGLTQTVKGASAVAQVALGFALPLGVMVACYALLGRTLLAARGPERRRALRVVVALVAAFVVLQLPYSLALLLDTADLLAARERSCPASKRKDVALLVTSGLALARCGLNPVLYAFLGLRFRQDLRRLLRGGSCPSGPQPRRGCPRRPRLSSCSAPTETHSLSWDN
As to the kind of experiment: CCR10 antagonistic effect: calcium assay of human CCR10 (CTACK-induced increase of intracellular calcium in hCCR10G16 cells). The following applies: at a concentration of not more than 1000 nmol/L; human CCR10-expressing hCCR10G16 cells, 300 nmol/L CTACK added; read-out: inhibition of increase in the calcium ion concentration. In kind it is cell-based. As for the experimental part: [Experimental Example 1] CCR10 Antagonistic Effect
(1) Preparation of Human CCR10-Inducible Expression Plasmid
A CCR10-inducible expression plasmid was prepared according to a known method [Analytical Biochemistry, 2006, vol. 400, page 163]. A DNA encoding human CCR10 was obtained by PCR. Using human chromosome DNA (100 ng; manufactured by Clontech) as a template, synthetic DNA having the sequences depicted in SEQ ID NOs: 1 and 2 as a human CCR10 cDNA specific primer, and Pyrobest DNA Polymerase (manufactured by TAKARA SHUZO CO. LTD.) as an enzyme, a DNA encoding human CCR10 was obtained by PCR. As a buffer for PCR, the buffer attached to the enzyme to be used, which was diluted 10-fold with deionized water, was used. Using Thermal Cycler DNA Engine (manufactured by MJ Research), PCR was performed by 35 cycles of reactions composed of an incubation at 94° C. for 30 sec, at an anneal temperature of 58° C. for 30 sec, and at 72° C. for 1 min after treating at 90° C. for 2 min.
The amplified PCR fragment was cleaved with HindIII and NotI, then a human CCR10 DNA fragment was recovered by the agarose gel electrophoresis method. The fragment was incorporated between the corresponding restriction enzyme sites (HindIII-NotI) of an inducible expression vector to construct a human CCR10-inducible expression plasmid.
Using a primer specific to the sequence of plasmid (synthetic DNA having the sequences shown in SEQ ID NOs: 3 and 4), the sequence of human CCR10 DNA region was determined. For the determination of the base sequence, DNA Sequencer 377 (manufactured by Perkin Elmer. Co.) and a reaction kit (ABI Prism (registered trade mark) BigDye (registered trade mark) Terminator Cycle Sequencing Ready Reaction kit: manufactured by Applied Biosystems) were used. The sequence of human CCR10 DNA was identical with the sequence (NM 016602) registered in GenBank.
(2) Preparation of Human CCR10 Expressing Cell for Calcium Assay
Cells for detecting signals from human CCR10 in calcium assay were prepared. According to a known method [Analytical.Biochemistry (Analy Biochem), 2006, vol. 400, page 163], human CCR10-inducible expressing cells whose host cell is KJMGER8 cell (Namalwa cell-derived cell line) were prepared. Human CCR10-inducible expression plasmid produced above and Gα16 expression plasmid were co-transfected into the KJMGER8 cells by the electroporation method [Cytotechnology, 1990, vol. 3, page 133], whereby the signals from human CCR10 could be detected by calcium assay (hereinafter to be referred to as hCCR10G16 cell). A Ga16 expression plasmid was produced by incorporating human Ga16 DNA into expression vector pAMoh (WO 03/087366). Expression of human CCR10 was induced by cultivating hCCR10G16 cells in the presence of 10 nmol/L β-estradiol (manufactured by Sigma Ltd.) for 24 hr.
(3) Calcium Assay of Human CCR10
Cells expressing human CCR10 induced by the above-mentioned method were suspended in RPMI1640 medium (manufactured by Invitrogen), and adjusted to a cell density of 2×10^6 cells/mL. The cells were blended with an equivalent volume of a loading buffer prepared according to the attached protocol of Fluo-3 calcium assay kit (manufactured by Molecular Devices Corporation), and incubated at 37° C. for several dozen minutes. This mixture was dispensed to a 384 well clear-bottom plate (manufactured by Corning Incorporated) at 40 μL/well. To this plate was added a solution of the test compound in dimethyl sulfoxide (DMSO), which was diluted 37-fold with RPMI1640 medium, at 5 μL/well, and the mixture was incubated at 37° C. for 30 min. 300 nmol/L human recombinant CTACK (manufactured by R&D Systems, Inc.) diluted with RPMI1640 medium containing 1 w/v % bovine serum albumin (manufactured by Sigma Ltd.) was added at 5 μL/well and, variation of intracellular calcium ion concentration for about 5 min after the addition was measured by a screening apparatus (FDSS; manufactured by Hamamatsu Photonics K.K.). […]
Background: Calcium flux is commonly read through the fluorescence of an indicator in the cells.

As for `Cc1cc(Cl)ccc1Nc1cc(S(N)(=O)=O)ncc1C(=O)N1CCC(c2ccccc2)CC1` [Compound 49, 4-(4-chloro-2-methylphenylamino)-5-(4-phenylpiperidine-1-carbonyl)pyridine-2-sulfonamide], the inhibition at up to 1 µM was at least 50%.

In the case of `Cc1ccc(Cl)c(Nc2cc(S(N)(=O)=O)ncc2C(=O)N2CCC(c3ccc(F)cc3)CC2)c1` [Compound 50, 4-(2-chloro-5-methylphenylamino)-5-[4-(4-fluorophenyl)piperidine-1-carbonyl]pyridine-2-sulfonamide], the inhibition at up to 1 µM was at least 50%.

Consider `Cc1cc(Nc2cc(S(N)(=O)=O)ncc2C(=O)N2CCC(c3ccc(F)cc3)CC2)c(Cl)cc1Cl` [Compound 51, 4-(2,4-dichloro-5-methylphenylamino)-5-[4-(4-fluorophenyl)piperidine-1-carbonyl]pyridine-2-sulfonamide], for which the inhibition at up to 1 µM is at least 50%.

With `Cc1cc(Nc2cc(S(N)(=O)=O)ncc2C(=O)N2CCC(c3ccc(F)cc3)CC2)c(Cl)cc1F` [Compound 52, 4-(2-chloro-4-fluoro-5-methylphenylamino)-5-[4-(4-fluorophenyl)piperidine-1-carbonyl]pyridine-2-sulfonamide], the inhibition at up to 1 µM was at least 50%.

Consider `Cc1ccc(C)c(Nc2cc(S(N)(=O)=O)ncc2C(=O)N2CCC(c3ccc(F)cc3)CC2)c1` [Compound 53, 4-(2,5-dimethylphenylamino)-5-[4-(4-fluorophenyl)piperidine-1-carbonyl]pyridine-2-sulfonamide], for which the inhibition at up to 1 µM was at least 50%.

Regarding `Cc1ccc(Nc2cc(S(N)(=O)=O)ncc2C(=O)N2CCC(c3ccc(F)cc3)CC2)c(C)c1` [Compound 55, 4-(2,4-dimethylphenylamino)-5-[4-(4-fluorophenyl)piperidine-1-carbonyl]pyridine-2-sulfonamide], the inhibition at up to 1 µM was at least 50%.

`Cc1ccc(Nc2cc(S(N)(=O)=O)ncc2C(=O)N2CCC(c3ccc(F)cc3)CC2)c(F)c1` [Compound 56, 4-(2-fluoro-4-methylphenylamino)-5-[4-(4-fluorophenyl)piperidine-1-carbonyl]pyridine-2-sulfonamide]: the inhibition at up to 1 µM is at least 50%.

In the case of `Cc1c(Cl)cccc1Nc1cc(S(N)(=O)=O)ncc1C(=O)N1CCC(c2ccc(F)cc2)CC1` [Compound 57, 4-(3-chloro-2-methylphenylamino)-5-[4-(4-fluorophenyl)piperidine-1-carbonyl]pyridine-2-sulfonamide], the inhibition at up to 1 µM was at least 50%.

Turning to `Cc1ccc(Nc2cc(S(N)(=O)=O)ncc2C(=O)N2CCC(c3ccc(F)cc3)CC2)c(Cl)c1` [Compound 58, 4-(2-chloro-4-methylphenylamino)-5-[4-(4-fluorophenyl)piperidine-1-carbonyl]pyridine-2-sulfonamide], the inhibition at up to 1 µM was at least 50%.

`Cc1c(Nc2cc(S(N)(=O)=O)ncc2C(=O)N2CCC(c3ccc(F)cc3)CC2)ccc(Cl)c1F` [Compound 59, 4-(4-chloro-3-fluoro-2-methylphenylamino)-5-[4-(4-fluorophenyl)piperidine-1-carbonyl]pyridine-2-sulfonamide]: the inhibition at up to 1 µM is at least 50%.

`Cc1c(F)cccc1Nc1cc(S(N)(=O)=O)ncc1C(=O)N1CCC(c2ccc(F)cc2)CC1` [Compound 60, 4-(3-fluoro-2-methylphenylamino)-5-[4-(4-fluorophenyl)piperidine-1-carbonyl]pyridine-2-sulfonamide]: the inhibition at up to 1 µM is at least 50%.

Turning to `Cc1c(Nc2cc(S(N)(=O)=O)ncc2C(=O)N2CCC(c3ccc(F)cc3)CC2)cccc1C(F)(F)F` [Compound 61, 5-[4-(4-fluorophenyl)piperidine-1-carbonyl]-4-[2-methyl-3-(trifluoromethyl)phenylamino]pyridine-2-sulfonamide], the inhibition at up to 1 µM is at least 50%.

As for `Cc1ccc(F)cc1Nc1cc(S(N)(=O)=O)ncc1C(=O)N1CCC(c2ccc(F)cc2)CC1` [Compound 62, 4-(5-fluoro-2-methylphenylamino)-5-[4-(4-fluorophenyl)piperidine-1-carbonyl]pyridine-2-sulfonamide], the inhibition at up to 1 µM was at least 50%.

`Cc1ccc(Nc2cc(S(N)(=O)=O)ncc2C(=O)N2CCC(c3ccc(F)cc3)CC2)cc1F` [Compound 64, 4-(3-fluoro-4-methylphenylamino)-5-[4-(4-fluorophenyl)piperidine-1-carbonyl]pyridine-2-sulfonamide]: the inhibition at up to 1 µM is at least 50%.

With `Cc1cccc(Nc2cc(S(N)(=O)=O)ncc2C(=O)N2CCC(c3ccc(F)cc3)CC2)c1C` [Compound 65, 4-(2,3-dimethylphenylamino)-5-[4-(4-fluorophenyl)piperidine-1-carbonyl]pyridine-2-sulfonamide], the inhibition at up to 1 µM was at least 50%.

As for `Cc1c(Cl)ccc(Nc2cc(S(N)(=O)=O)ncc2C(=O)N2CCC(c3ccc(F)cc3)CC2)c1C` [Compound 66, 4-(4-chloro-2,3-dimethylphenylamino)-5-[4-(4-fluorophenyl)piperidine-1-carbonyl]pyridine-2-sulfonamide], the inhibition at up to 1 µM was at least 50%.

As for `Cc1cc(Nc2cc(S(N)(=O)=O)ncc2C(=O)N2CCC(c3ccc(F)cc3)CC2)c(F)cc1Cl` [Compound 67, 4-(4-chloro-2-fluoro-5-methylphenylamino)-5-[4-(4-fluorophenyl)piperidine-1-carbonyl]pyridine-2-sulfonamide], the inhibition at up to 1 µM is at least 50%.

As to `Cc1ccc(F)c(Nc2cc(S(N)(=O)=O)ncc2C(=O)N2CCC(c3ccc(F)cc3)CC2)c1` [Compound 68, 4-(2-fluoro-5-methylphenylamino)-5-[4-(4-fluorophenyl)piperidine-1-carbonyl]pyridine-2-sulfonamide], the inhibition at up to 1 µM is at least 50%.

For the compound `COc1ccc(Cl)cc1Nc1cc(S(N)(=O)=O)ncc1C(=O)N1CCC(c2ccc(F)cc2)CC1` [Compound 69, 4-(5-chloro-2-methoxyphenylamino)-5-[4-(4-fluorophenyl)piperidine-1-carbonyl]pyridine-2-sulfonamide], the inhibition at up to 1 µM is at least 50%.

For the compound `NS(=O)(=O)c1cc(Nc2cc(F)ccc2Cl)c(C(=O)N2CCC(c3ccc(F)cc3)CC2)cn1` [Compound 70, 4-(2-chloro-5-fluorophenylamino)-5-[4-(4-fluorophenyl)piperidine-1-carbonyl]pyridine-2-sulfonamide], the inhibition at up to 1 µM is at least 50%.

In the case of `NS(=O)(=O)c1cc(Nc2cc(F)c(Cl)cc2Cl)c(C(=O)N2CCC(c3ccc(F)cc3)CC2)cn1` [Compound 71, 4-(2,4-dichloro-5-fluorophenylamino)-5-[4-(4-fluorophenyl)piperidine-1-carbonyl]pyridine-2-sulfonamide], the inhibition at up to 1 µM was at least 50%.

These data come from US9701689B2, “Substituted pyridines and pyridazines as CCR10 receptor inhibitors” (KYOWA HAKKO KIRIN CO., LTD., priority 2012, dated 2017).
